From paper PMC11250030, “Strategic Single-Residue Substitution in the Antimicrobial Peptide Esc(1–21) Confers Activity against Staphylococcus aureus, Including Drug-Resistant and Biofilm Phenotype” (ACS Infectious Diseases, 2024)
Values after ≈ are worked out from the molar mass of the structure shown. Read-outs that look alike come from different tables or passages of the source. Where a SMILES comes first, the peptide text is derived from it. [ ]: non-standard residue; d: D form. Aib = CC(C)(N)C(=O)O

Columns and labels:
HaCaT cells = system: HaCaT cells; design: method as in PMID 26162435; details: previously described; cited from earlier work
P. aeruginosa ATCC 25853 = system: P. aeruginosa ATCC 25853
Experimental: (§1) Antimicrobial susceptibility was evaluated by the broth microdilution assay to determine the MIC as already described by Buommino et al.[71] The bacterial suspension in Muller Hinton (MH) at a concentration of 2 × 10^6 cell/mL in the mid-log phase was prepared. Aliquots of 50 μL of the bacterial suspension were added to 50 μL of MH containing serial 2-fold dilutions of the peptides (from 100 to 0.78 μM) that were previously prepared in a 96-well plate. […] Each measurement was performed in triplicate. MICs were obtained from three identical readings of four independent experiments. The antibiofilm activity of the tested peptides was evaluated as reported by Casciaro et al.[72] Microbial culture was grown at 37 °C until it reached an optical density (OD) of 0.8 (λ = 590 nm), and then it was diluted to a cell density of 1 × 10^6 colony-forming units (CFUs)/mL.

S. aureus MDR #1 = system: S. aureus MDR #1
Experimental: as §1

S. aureus MDR #4 = system: S. aureus MDR #4
Experimental: as §1

S. aureus MDR #3 = system: S. aureus MDR #3
Experimental: as §1

A. baumannii ATCC 19606 = system: A. baumannii ATCC 19606
Experimental: as §1

S. aureus MDR #2 = system: S. aureus MDR #2
Experimental: as §1

[1] = system: S. epidermidis ATCC 12228
Experimental: as §1

E. coli ATCC 25922 = system: E. coli ATCC 25922
Experimental: as §1

S. aureus ATCC 25923 = system: S. aureus ATCC 25923
Experimental: as §1

in vitro = in vitro ADME, bovine; details: serum
Experimental: The proteolytic stability of peptide 2 was evaluated in bovine serum (ThermoFisher Scientific, Milan, Italy). Peptide 2 was dissolved in sterile water (200 μM) and incubated with 50% bovine serum at 37 °C. The reaction mixture was incubated at different time intervals (1, 3, 4, 5, 16, and 24 h). An aliquot of the mixture was taken at each pre-established time point and MeCN was added to precipitate serum proteins. Then, the mixture was cooled to 4 °C, centrifuged for 15 min ([…]), and then the supernatant was checked by HPLC using a Phenomenex Jupiter column (4 μm Proteo 90 Å 250 × 21.20 mm) with a linear gradient of MeCN (0.1% TFA) and H2O (0.1% TFA) from 10 to 90% in 20 min and with a flow rate of 1 mL/min.[73] The percentage of the nondegraded peptide was calculated by integrating the peak area of each HPLC chromatogram. Data points are the mean ± SD of three different experiments.

[2] = MDR clinical isolate 13164462, broth microdilution, 16–18 h at 37 °C, three identical readings of four independent experiments
[3] = MDR clinical isolate 13667073, broth microdilution, 16–18 h at 37 °C, three identical readings of four independent experiments

## CC[C@H](C)[C@H](NC(=O)CN)C(=O)N[C@@H](Cc1ccccc1)C(=O)N[C@@H](CO)C(=O)N[C@@H](CCCCN)C(=O)N[C@@H](CC(C)C)C(=O)N[C@@H](C)C(=O)NCC(=O)N[C@@H](CCCCN)C(=O)N[C@@H](CCCCN)C(=O)N[C@H](C(=O)N[C@@H](CCCCN)C(=O)N[C@@H](CC(N)=O)C(=O)N[C@@H](CC(C)C)C(=O)N[C@@H](CC(C)C)C(=O)N[C@H](C(=O)N[C@@H](CO)C(=O)NCC(=O)N[C@@H](CC(C)C)C(=O)N[C@@H](CCCCN)C(=O)NCC(N)=O)[C@@H](C)CC)[C@@H](C)CC [peptide 1] (H-GIFSKLAGKKIKNLLISGLKG-NH2)
HaCaT cells
  lethal dose causing 50% killing (LD50): > 50 µM
P. aeruginosa ATCC 25853
  MIC: 3.12 µM (≈ 6.82 µg/mL)
S. aureus MDR #1; [2]
  MIC: >100 µM
S. aureus MDR #4
  MIC: >100 µM
S. aureus MDR #3; [3]
  MIC: 100 µM (≈ 218 µg/mL)
A. baumannii ATCC 19606
  MIC: 1.56 µM (≈ 3.41 µg/mL)
S. aureus MDR #2; MDR #2
  MIC: 100 µM (≈ 218 µg/mL)
[1]
  MIC: 3.12 µM (≈ 6.82 µg/mL)
E. coli ATCC 25922
  MIC: 1.56 µM (≈ 3.41 µg/mL)
S. aureus ATCC 25923; ATCC 25923
  MIC: >100 µM

## CC[C@H](C)[C@H](NC(=O)CN)C(=O)N[C@@H](Cc1ccccc1)C(=O)N[C@@H](CO)C(=O)N[C@@H](CCCCN)C(=O)N[C@@H](CC(C)C)C(=O)N[C@@H](C)C(=O)NC(C)(C)C(=O)N[C@@H](CCCCN)C(=O)N[C@@H](CCCCN)C(=O)N[C@H](C(=O)N[C@@H](CCCCN)C(=O)N[C@@H](CC(N)=O)C(=O)N[C@@H](CC(C)C)C(=O)N[C@@H](CC(C)C)C(=O)N[C@H](C(=O)N[C@@H](CO)C(=O)NCC(=O)N[C@@H](CC(C)C)C(=O)N[C@@H](CCCCN)C(=O)NCC(N)=O)[C@@H](C)CC)[C@@H](C)CC [peptide 2] (H-GIFSKLA[Aib]KKIKNLLISGLKG-NH2)
P. aeruginosa ATCC 25853
  MIC: 3.12 µM (≈ 6.9 µg/mL)
S. aureus MDR #1; [2]
  MIC: 12.5 µM (≈ 27.7 µg/mL)
S. aureus MDR #4
  MIC: 6.25 µM (≈ 13.8 µg/mL)
S. aureus MDR #3; [3]
  MIC: 12.5 µM (≈ 27.7 µg/mL)
A. baumannii ATCC 19606
  MIC: 0.78 µM (≈ 1.73 µg/mL)
S. aureus MDR #2; MDR clinical isolate 13165968, broth microdilution, 16–18 h at 37 °C, three identical readings of four independent experiments
  MIC: 12.5 µM (≈ 27.7 µg/mL)
[1]
  MIC: 0.78 µM (≈ 1.73 µg/mL)
E. coli ATCC 25922
  MIC: 0.78 µM (≈ 1.73 µg/mL)
S. aureus ATCC 25923; broth microdilution, Muller Hinton, 16–18 h at 37 °C, three identical readings of four independent experiments
  MIC: 12.5 µM (≈ 27.7 µg/mL)
In vitro
  remaining at 1 h, 200 μM: ~90%
  remaining at 3 h, 200 μM: ~75%
  remaining at 4 h, 200 μM: ~65%
  remaining at 5 h, 200 μM: ~40%
  remaining at 16 h, 200 μM: ~40%
  remaining at 24 h, 200 μM: ~15%

## CC[C@H](C)[C@H](NC(=O)CN)C(=O)N[C@@H](Cc1ccccc1)C(=O)N[C@@H](CO)C(=O)N[C@@H](CCCCN)C(=O)N[C@@H](CC(C)C)C(=O)N[C@@H](C)C(=O)N1CCC[C@@H]1C(=O)N[C@@H](CCCCN)C(=O)N[C@@H](CCCCN)C(=O)N[C@H](C(=O)N[C@@H](CCCCN)C(=O)N[C@@H](CC(N)=O)C(=O)N[C@@H](CC(C)C)C(=O)N[C@@H](CC(C)C)C(=O)N[C@H](C(=O)N[C@@H](CO)C(=O)NCC(=O)N[C@@H](CC(C)C)C(=O)N[C@@H](CCCCN)C(=O)NCC(N)=O)[C@@H](C)CC)[C@@H](C)CC [peptide 4] (H-GIFSKLA[dP]KKIKNLLISGLKG-NH2)
P. aeruginosa ATCC 25853
  MIC: 25 µM (≈ 55.6 µg/mL)
S. aureus MDR #1; MDR #1
  MIC: >100 µM
S. aureus MDR #4
  MIC: >100 µM
S. aureus MDR #3; MDR #3
  MIC: >100 µM
A. baumannii ATCC 19606
  MIC: 12.5 µM (≈ 27.8 µg/mL)
S. aureus MDR #2; MDR #2
  MIC: >100 µM
[1]
  MIC: 12.5 µM (≈ 27.8 µg/mL)
E. coli ATCC 25922
  MIC: 6.25 µM (≈ 13.9 µg/mL)
S. aureus ATCC 25923; ATCC 25923
  MIC: >100 µM

## CC[C@H](C)[C@H](NC(=O)CN)C(=O)N[C@@H](Cc1ccccc1)C(=O)N[C@@H](CO)C(=O)N[C@@H](CCCCN)C(=O)N[C@@H](CC(C)C)C(=O)N[C@@H](C)C(=O)N1CCC[C@H]1C(=O)N[C@@H](CCCCN)C(=O)N[C@@H](CCCCN)C(=O)N[C@H](C(=O)N[C@@H](CCCCN)C(=O)N[C@@H](CC(N)=O)C(=O)N[C@@H](CC(C)C)C(=O)N[C@@H](CC(C)C)C(=O)N[C@H](C(=O)N[C@@H](CO)C(=O)NCC(=O)N[C@@H](CC(C)C)C(=O)N[C@@H](CCCCN)C(=O)NCC(N)=O)[C@@H](C)CC)[C@@H](C)CC [peptide 3] (H-GIFSKLAPKKIKNLLISGLKG-NH2)
P. aeruginosa ATCC 25853
  MIC: 6.25 µM (≈ 13.9 µg/mL)
S. aureus MDR #1; MDR #1
  MIC: >100 µM
S. aureus MDR #4
  MIC: >100 µM
S. aureus MDR #3; MDR #3
  MIC: >100 µM
A. baumannii ATCC 19606
  MIC: 1.56 µM (≈ 3.47 µg/mL)
S. aureus MDR #2; MDR #2
  MIC: >100 µM
[1]
  MIC: 6.25 µM (≈ 13.9 µg/mL)
E. coli ATCC 25922
  MIC: 3.12 µM (≈ 6.94 µg/mL)
S. aureus ATCC 25923; ATCC 25923
  MIC: >100 µM
